Assay results reported in paper PMC9056410, “14-Residue peptaibol velutibol A from Trichoderma velutinum: its structural and cytotoxic evaluation” (RSC Advances, 2020).
Converted amounts (≈) assume the structure as drawn. Where two headings read alike, the source gives them in different places. Where a SMILES comes first, the peptide text is derived from it. [ ]: non-standard residue; d: D form. Leu(ol) = CC(C)C[C@H](N)CO; Aib = CC(C)(N)C(=O)O

How the values were obtained:
[1] = system: human breast cancer (MDA-MB-231); test: cells; type: cell-based; details: MTT, mean ± SD of three experiments, read-out: IC50 ± standard deviation
Description: (§1) The cytotoxicity testing of compound 1 was performed against various cell lines, which includes human lung cancer (A549), human colon cancer (LS-180), human myeloid leukemia (HL-60) and human breast cancer (MDA-MB-231) using MTT (3-(4,5-dimethylthiazole-2-yl)-2,5-diphenyltetrazolium bromide). Herein, paclitaxel was used as positive control for cytotoxic assay. […] Further, the cell-cycle assay was performed on HL-60 cell lines. The compound 1 was treated against HL-60 cells at concentrations 5, 10, 20 and 30 μM and incubated for 24 h. […] Apoptotic bodies are small DNA fragments wrapped around the single membrane vesicles mainly formed when cells undergo apoptosis. These apoptotic bodies can be visualized under a fluorescent microscope by using DNA staining dyes such as 4′,6-diamidino-2-phenylindole (DAPI). The HL-60 cells were incubated with the compound 1 at different concentrations (5, 10, 20 and 30 μM) for 24 h. […] The % apoptosis is also represented graphically in Fig. 7.
(§2) The cytotoxic effect of compound 1 on cancer cells was assayed by using MTT dye. The HL-60 cell lines were seeded for 4 h in round bottom 96 well plates. It was then treated with different concentrations of compound 1 dissolved in DMSO and incubated for 48 h. With 3 h earlier to experiment termination, the MTT dye (20 μL) from the stock solution of 2.5 mg mL^−1 was added to each well. The MTT-formazan crystals thus formed were dissolved in DMSO (160 μL) and observed at 570 nm. The untreated control culture was treated with DMSO (<0.2%).

[2] = system: human myeloid leukemia (HL-60); test: cells; type: cell-based; details: MTT, mean ± SD of three experiments, read-out: IC50 ± standard deviation
Description: as §1, §2

[3] = system: human colon cancer (LS-180); test: cells; type: cell-based; details: mean ± SD of three experiments, read-out: IC50 ± standard deviation
Description: as §1, §2

human lung cancer (A549) = test: cells; type: cell-based; details: MTT, mean ± SD of three experiments, read-out: IC50 ± standard deviation
Description: as §1, §2

M. tuberculosis H37Rv [4] = test: microbe, parasite or virus in culture; details: Mycobacterium tuberculosis, read-out: Minimum Inhibitory Concentration (MIC)
HL-60 cells [5] = test: Cell cycle analysis, propidium iodide staining, flow cytometry; type: cell-based, human; details: 24 h, PI staining
Description: as §1
The cell cycle phase distribution analysis in HL-60 cells was carried out by propidium iodide (PI) staining. The HL-60 cells were treated with different concentration (5, 10, 20 and 30 μM) of 1. After 24 h, the cells were centrifuged and collected at 400 × g and washed two times with PBS followed by fixing with ice-cold ethanol (70%). It was incubated overnight at 4 °C. Next day, cells were centrifuged at 4000 rpm, collected and washed with PBS followed by incubation with RNase (0.2 mg mL^−1) for 90 min at 37 °C. It was then stained with PI (10 μg mL^−1) and kept for 30 min in dark. The analysis of cells were carried out through flow-cytometer (FACS Calibur, Becton Dickinson) using list mode on 10 000 events for FL2-A vs. FL2-W. The ModFit software was used for the calculation of fluorescence intensity of the sub-G1 cell fraction representing the apoptotic cell population.

M. tuberculosis H37Rv [6] = details: 48 h
HL-60 cells [7] = test: Nuclear morphology, DAPI staining, fluorescence microscopy; type: cell-based, human; details: HL-60, 5, 10, 20 and 30 μM, 24 h
Description: as §1
HL-60 cells were incubated with compound 1 in a 12 well plate. After 24 h, cells were centrifuged at 400 × g, collected and washed two times with PBS. The cells were fixed using 1 mL solution of cold acetic acid in methanol (1 : 3) and incubated overnight at 4 °C. Further, the cells were centrifuged at 400 × g, collected and re-suspended in fixing solution (100 μL). […]

[8] = 48 h incubation, read at 570 nm

CC(=O)O[C@H]1C(=O)[C@@]2(C)[C@H]([C@H](OC(=O)c3ccccc3)[C@]3(O)C[C@H](OC(=O)[C@H](O)[C@@H](NC(=O)c4ccccc4)c4ccccc4)C(C)=C1C3(C)C)[C@]1(OC(C)=O)CO[C@@H]1C[C@@H]2O [Paclitaxel, paclitaxel, reference compound]
IC50 ([1]; Homo sapiens, positive control): 3.3 ± 0.1 nM
IC50 ([2]; Homo sapiens, positive control): 1.8 ± 0.1 nM
IC50 ([3]; Homo sapiens, LS180, MTT, positive control): 2.2 ± 0.1 nM
IC50 (human lung cancer (A549); Homo sapiens, positive control): 6.2 ± 0.1 nM

CO[C@H]1/C=C/O[C@@]2(C)Oc3c(C)c(O)c4c(O)c(c(/C=N/N5CCN(C)CC5)c(O)c4c3C2=O)NC(=O)/C(C)=C\C=C\[C@H](C)[C@H](O)[C@@H](C)[C@@H](O)[C@@H](C)[C@H](OC(C)=O)[C@@H]1C [Rifampicin]
MIC (M. tuberculosis H37Rv [4]): 0.06 µg/mL (≈ 0.0729 µM)

CC(=O)NC(C)(C)C(=O)N[C@@H](CCC(N)=O)C(=O)N[C@@H](CC(C)C)C(=O)NC(C)(C)C(=O)N1CCC[C@H]1C(=O)N[C@H](C(=O)N[C@@H](CC(C)C)C(=O)NC(C)(C)C(=O)N1CCC[C@H]1C(=O)NC(C)(C)C(=O)NC(C)(C)C(=O)NC(C)(C)C(=O)N1CCC[C@H]1C(=O)N[C@H](CO)CC(C)C)C(C)C [compound 1, Velutibol A] (Ac-[Aib]QL[Aib]PVL[Aib]P[Aib][Aib][Aib]P[Leu(ol)])
Apop (apoptotic DNA population, sub-G1) (HL-60 cells [5]; HL-60, 10 μM): 70%
Apop (apoptotic DNA population, sub-G1) (HL-60 cells [5]; HL-60, 20 μM): 85%
Apop (apoptotic DNA population, sub-G1) (HL-60 cells [5]; HL-60, 30 μM): 99%
Minimum Inhibitory Concentration (MIC) (M. tuberculosis H37Rv [6]): 32 µg/mL
IC50 [1, 8]: 7000 ± 200 nM
IC50 [2, 8]: 4000 ± 100 nM
IC50 ([3]; MTT, 48 h incubation, read at 570 nm): 26000 ± 1100 nM
IC50 (human lung cancer (A549); [8]): 23000 ± 800 nM
Formation of apoptotic bodies (HL-60 cells [7]): increased in a dose-dependent manner
